Test results as given in patent publication US8012952B2, “Cationic 17 α-substituted-estradiol derivatives useful as anti-cancer agent” (Council of Scientific & Industrial Research, priority 2007, dated 2011).

Key:
MDA-MB-468 cells = assay: MTT cell viability assay, MDA-MB-468 cells; details: Homo sapiens, MDA-MB-468, read-out: in-vitro percent cell viability
Procedure: (§1) The in vitro cytotoxicities of the derivative A to various cancer and non-cancer cells across different molar concentrations (0.5 μM-50 μM) were performed. The cancer cells were chosen from various origins, such as breast cancer cells MCF-7 (primary carcinoma), T47D (ductal carcinoma), MDA-MB-468 (secondary, metastatic); cervical cancer cell Hela; lung cancer cell A549 (metastatic). […] In one set of experiments, the cells were treated at different concentrations of derivative A for 4 h, washed and kept in serum media for 6 days to observe cellular toxicity using MTT assay (FIGS. 1, 2, 4, 6A and 6B), except for one cell line where the assay was done after 4 days (FIG. 3). In another set of experiment, the cells were treated continuously for 48 h in presence of serum media and cellular toxicities were assayed promptly (FIG. 5).
(§2) Cells and Cell Culture. CHO (Chinese hamster ovary), COS-1 (African Green monkey kidney cells) HeLa (Human cervical carcinoma), MCF-7 (Human breast primary adenocarcinoma), T47D (Human breast ductal carcinoma), MDA-MB-468 (Human breast secondary adenocarcinoma), and A-549 (Human lung carcinoma) cell lines were procured from the National Centre for Cell Sciences (NCCS), Pune, India and were mycoplasma free. […] The cells were trypsinized, counted, subcultured in 96-well plates for viability studies. […]

T47D cells = assay: MTT cell viability assay, T47D cells; details: Homo sapiens, read-out: in-vitro percent cell viability
Procedure: as §1, §2

Hela cells = assay: MTT cell viability assay, Hela cells; details: Homo sapiens, read-out: in-vitro percent cell viability
Procedure: as §1, §2

MCF-7 cells = assay: MTT cell viability assay, MCF-7 cells; details: Homo sapiens, MCF7, read-out: in-vitro percent cell viability
Procedure: as §1, §2

Measured: viability at 50 µM

CCCCCCCC[N+](C)(CCCCCCCC)CCC[C@]1(O)CCC2C3CCc4cc(O)ccc4C3CC[C@@]21C (stereo partly drawn) [Derivative 1, 17α-[3-N,N-dioctyl(methyl)aminopropane]-17β-Estradiol]
2 to 10%: all assays above
